Measurements taken from publication doi:10.1101/2025.08.24.671973v1 (biorxiv, 2025).

Legend:
[1] = molecular target: CHI3L1/galectin-3 interaction (hCHI3L1-His with galectin-3-GST) (Homo sapiens, UniProt P36222); experiment: AlphaLISA, inhibition of CHI3L1/galectin-3 interaction; type: binding
CHI3L1 (hCHI3L1-His) = CHI3L1 (hCHI3L1-His) (Homo sapiens, UniProt P36222); experiment: SPR; type: binding
Chain of CHI3L1 (hCHI3L1-His) (P36222 22-383): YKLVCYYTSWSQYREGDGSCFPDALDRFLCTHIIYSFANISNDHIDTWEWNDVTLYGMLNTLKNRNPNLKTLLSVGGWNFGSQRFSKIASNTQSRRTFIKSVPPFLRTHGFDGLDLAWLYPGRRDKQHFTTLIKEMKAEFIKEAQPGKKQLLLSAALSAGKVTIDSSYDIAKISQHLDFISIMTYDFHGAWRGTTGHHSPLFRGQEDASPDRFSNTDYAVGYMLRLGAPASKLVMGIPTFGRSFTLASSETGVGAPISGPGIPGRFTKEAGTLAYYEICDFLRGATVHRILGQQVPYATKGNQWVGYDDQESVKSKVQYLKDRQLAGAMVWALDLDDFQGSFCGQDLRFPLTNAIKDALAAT

Chain of CHI3L1/galectin-3 interaction (hCHI3L1-His with galectin-3-GST) (P36222 22-383): as above
Chain of CHI3L1/galectin-3 interaction (hCHI3L1-His with galectin-3-GST) (P17931 2-250 partner): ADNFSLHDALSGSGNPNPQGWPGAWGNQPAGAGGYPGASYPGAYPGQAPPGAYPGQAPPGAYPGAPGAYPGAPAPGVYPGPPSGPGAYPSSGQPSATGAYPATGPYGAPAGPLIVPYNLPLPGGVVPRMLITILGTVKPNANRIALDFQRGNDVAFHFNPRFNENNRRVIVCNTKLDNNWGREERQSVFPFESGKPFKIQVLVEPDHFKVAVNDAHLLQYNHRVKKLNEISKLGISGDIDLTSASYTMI

Compound	IC50 [1] [µM]	Kd (CHI3L1 (hCHI3L1-His)) [µM]
CC1Cc2ccccc2CN1C(=O)NCc1cc(=O)n2ccccc2n1 (stereo not shown) [1-4]	23.5 ± 2	10.4 ± 1
Cc1c(NC(=O)Cn2cnc3sccc3c2=O)cnn1C1CCCC1 [1-7]	15.4 ± 4.7	7.4 ± 0.78
